{"source": "patent US5232912A", "about": "“Anticoagulant peptides” (Merrell Dow Pharmaceuticals Inc., priority 1992, dated 1993)", "target": "T1, bovine thrombin (Bos taurus, UniProt P00735)", "T1 construct": "A bovine thrombin solution (50 ul; 0.2 pmol; Sigma); purchased Sigma", "experiment": "Fibrin clot inhibition assay", "format": "biochemical", "set-up": "unit not given here", "settings": "bovine thrombin 0.2 pmol, 10 minute incubation at 24° C., 1:10 diluted human plasma, turbidity (A405); two-fold delay of fibrin clot present at 15 minutes in the control well", "protocol": "Human plasma was collected in EDTA (final concentration=0.1%) from a healthy volunteer who had fasted for 12 hours. The plasma was immediately sterilized by passing it through a 0.2 u filter membrane (Gelman) then aliquoted into 1 ml portions and stored at -20° C. In all assays, unsulfated Nα-acetylhirudin 45-65 was included as a control. A bovine thrombin solution (50 ul; 0.2 pmol; Sigma) was added to the wells of a 96 well microtiter plate (Falcon) containing 50 ul of a solution and a 10 minute incubation at 24° C., 100 ul of 1:10 diluted human plasma in 0.12M sodium chloride, 0.01M sodium phosphate, 0.01% sodium azide, 0.1% bovine serum albumin (pH 7.4) was added. The mixture was agitated for 20 seconds and the turbidity (A405) of the solution was measured at 5 minute intervals by an autoreader (Bio-Tek Model EL 309). Reported is the ability of a 5 uM concentration of peptide to delay two-fold the amount of fibrin clot present at 15 minutes in the control well."}
{"smiles": "CC[C@H](C)[C@H](NC(=O)[C@@H]1CCCN1C(=O)[C@H](CCC(=O)O)NC(=O)[C@H](Cc1ccc(O)cc1)NC(=O)CCC(=O)O)C(=O)N1CCCC[C@H]1C(=O)N[C@@H](CCC(=O)O)C(=O)N[C@@H](CCC(=O)O)C(=O)N[C@@H](C)C(=O)N[C@@H](CC1CCCCC1)C(=O)N[C@H](CCC(=O)O)C(=O)O", "note": "[Example 1, Suc-Tyr-Glu-Pro-Ile-Pip-Glu-Glu-Ala-Cha-D-Glu-OH]", "values": [{"measurement": "Fibrin Clot Inhibition", "result": 0.88}]}
{"smiles": "CC[C@H](C)[C@H](NC(=O)[C@@H]1CCCCN1C(=O)[C@H](CCC(=O)O)NC(=O)[C@H](Cc1ccc(O)cc1)NC(=O)CCC(=O)O)C(=O)N1CCC[C@H]1C(=O)N[C@@H](CCC(=O)O)C(=O)N[C@@H](CCC(=O)O)C(=O)N[C@@H](C)C(=O)N[C@@H](CC1CCCCC1)C(=O)N[C@H](CCC(=O)O)C(=O)O", "note": "[Example 2, Suc-Tyr-Glu-Pip-Ile-Pro-Glu-Glu-Ala-Cha-D-Glu-OH]", "values": [{"measurement": "Fibrin Clot Inhibition", "result": 1.9}]}
{"smiles": "CC[C@H](C)[C@H](NC(=O)[C@@H]1Cc2ccccc2CN1C(=O)[C@H](CCC(=O)O)NC(=O)[C@H](Cc1ccc(O)cc1)NC(=O)CCC(=O)O)C(=O)N1CCC[C@H]1C(=O)N[C@@H](CCC(=O)O)C(=O)N[C@@H](CCC(=O)O)C(=O)N[C@@H](C)C(=O)N[C@@H](CC1CCCCC1)C(=O)N[C@H](CCC(=O)O)C(=O)O", "note": "[Example 5, Suc-Tyr-Glu-Tiq-Ile-Pro-Glu-Glu-Ala-Cha-D-Glu-OH]", "values": [{"measurement": "Fibrin Clot Inhibition", "result": 0.82}]}
{"smiles": "CC[C@H](C)[C@H](NC(=O)[C@@H]1CCCN1C(=O)[C@H](CCC(=O)O)NC(=O)[C@H](Cc1ccc(O)cc1)NC(=O)CCC(=O)O)C(=O)N1Cc2ccccc2C[C@H]1C(=O)N[C@@H](CCC(=O)O)C(=O)N[C@@H](CCC(=O)O)C(=O)N[C@@H](C)C(=O)N[C@@H](CC1CCCCC1)C(=O)N[C@H](CCC(=O)O)C(=O)O", "note": "[Example 6, Suc-Tyr-Glu-Pro-Ile-Tiq-Glu-Glu-Ala-Cha-D-Glu-OH]", "values": [{"measurement": "Fibrin Clot Inhibition", "result": 0.63}]}
